Test results: publication PMC2680649 (International Journal of Molecular Sciences, 2009)
Where two headings read alike, the source gives them in different places.

Legend:
[1] = In vitro metabolism of zearalenone, human female liver microsomal preparation; assay type: in vitro ADME; settings: Human Female liver microsomes, 1 μM total P450, 50 μM ZEN, NADPH-generating system, pH 7.4, 30 min; n = 4
Excerpt: (§1) Monkeys (Cynomolgus, Macaca fascicularis), pig (Yucatan), dog (Beagle), rabbit (New Zealand), mouse (CD-1) and rat (Sprague Dawley) liver microsomes, rat 2C Supersomes® were purchased from Gentest (BD Biosciences, NJ, USA). Pools of human livers for female or male were purchased from Xenotech (Tebu-Bio, Le Perray en Yvelines, France). Human CYP Bactosomes® were provided by Cypex (Tebu-Bio, Le Perray en Yvelines, France).

[2] = ZEN incubation with rat liver post-mitochondrial fraction (S9)
[3] = In vitro metabolism of zearalenone, rabbit liver microsomal preparation; assay type: in vitro ADME, rabbit (New Zealand); settings: Rabbit liver microsomes, 1 μM total P450, 50 μM ZEN, NADPH-generating system, pH 7.4, 30 min; n = 4
Excerpt: as §1

[4] = In vitro metabolism of zearalenone, pig liver microsomal preparation; assay type: in vitro ADME, pig (Yucatan); settings: Pig liver microsomes, 1 μM total P450, 50 μM ZEN, NADPH-generating system, pH 7.4, 30 min; n = 4
Excerpt: as §1

[5] = ZEN incubation with rat liver cytosolic fraction; settings: rat liver cytosol, presence of NADPH
[6] = In vitro metabolism of zearalenone, PB-treated rat liver microsomal preparation; settings: PB-treated rat liver microsomes, 1 μM total P450, 50 μM ZEN, NADPH-generating system, pH 7.4, 30 min; n = 4
hER-α = target: T1, hER-α (Homo sapiens, UniProt P03372); experiment: cell-based; assay type: cell-based
T1 construct: expressed in transfected cells; host or cells: HELN (HeLa carrying a stably transfected estrogen-responsive luciferase reporter)
T1 sequence (P03372 whole entry): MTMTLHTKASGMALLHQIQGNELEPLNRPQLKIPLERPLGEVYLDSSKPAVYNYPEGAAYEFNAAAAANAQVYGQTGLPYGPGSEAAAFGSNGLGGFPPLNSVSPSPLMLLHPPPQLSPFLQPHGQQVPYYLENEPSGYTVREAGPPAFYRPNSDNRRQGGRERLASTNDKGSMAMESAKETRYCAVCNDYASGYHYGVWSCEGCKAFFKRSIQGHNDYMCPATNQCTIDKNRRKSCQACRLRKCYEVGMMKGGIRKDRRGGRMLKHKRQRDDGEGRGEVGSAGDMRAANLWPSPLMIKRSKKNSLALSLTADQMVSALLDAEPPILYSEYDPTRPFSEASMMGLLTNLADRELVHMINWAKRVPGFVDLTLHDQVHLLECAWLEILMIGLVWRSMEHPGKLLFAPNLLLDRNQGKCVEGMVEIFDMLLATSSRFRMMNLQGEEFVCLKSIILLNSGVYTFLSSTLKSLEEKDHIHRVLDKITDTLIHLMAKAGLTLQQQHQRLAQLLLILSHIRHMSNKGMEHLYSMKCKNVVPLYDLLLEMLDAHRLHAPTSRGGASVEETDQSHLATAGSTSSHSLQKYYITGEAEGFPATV

human ERα = system: human ERα; parameters: method as in PMID 9751507; settings: cells transfected with human ERα; cited from earlier work
human ERβ = system: human ERβ; parameters: method as in PMID 9751507; settings: cells transfected with human ERβ; cited from earlier work
hER-β = target: T2, hER-β (Homo sapiens, UniProt Q92731); experiment: cell-based; settings: read-out: EC50, half-maximal luciferase activity, transcriptional activation through ER β
T2 construct: expressed in transfected cells; host or cells: HELN (HeLa carrying a stably transfected estrogen-responsive luciferase reporter)
T2 sequence (Q92731 whole entry): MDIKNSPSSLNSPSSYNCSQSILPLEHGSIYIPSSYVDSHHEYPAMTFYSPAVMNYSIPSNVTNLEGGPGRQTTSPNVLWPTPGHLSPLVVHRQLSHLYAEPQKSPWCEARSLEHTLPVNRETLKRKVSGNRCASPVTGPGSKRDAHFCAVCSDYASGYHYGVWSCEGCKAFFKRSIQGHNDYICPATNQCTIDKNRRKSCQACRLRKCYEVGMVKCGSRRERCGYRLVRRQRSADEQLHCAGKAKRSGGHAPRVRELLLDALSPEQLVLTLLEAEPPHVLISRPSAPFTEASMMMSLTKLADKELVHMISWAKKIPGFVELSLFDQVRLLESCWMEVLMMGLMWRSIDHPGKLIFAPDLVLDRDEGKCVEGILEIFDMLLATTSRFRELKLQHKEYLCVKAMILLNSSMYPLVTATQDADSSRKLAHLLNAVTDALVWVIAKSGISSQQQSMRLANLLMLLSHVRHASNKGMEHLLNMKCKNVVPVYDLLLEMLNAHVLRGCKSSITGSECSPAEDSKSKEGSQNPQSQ

cytochrome P450 = assay type: in vitro ADME, rat
[7] = In vitro metabolism of zearalenone, mouse liver microsomal preparation; assay type: in vitro ADME, mouse (CD-1); settings: Mouse liver microsomes, 1 μM total P450, 50 μM ZEN, NADPH-generating system, pH 7.4, 30 min; n = 4
Excerpt: as §1

[8] = In vitro metabolism of zearalenone, rat liver microsomal preparation; assay type: in vitro ADME, rat (Sprague Dawley); settings: Rat (untreated) liver microsomes, 1 μM total P450, 50 μM ZEN, NADPH-generating system, pH 7.4, 30 min; n = 4
Excerpt: as §1

[9] = In vitro metabolism of zearalenone, dog liver microsomal preparation; assay type: in vitro ADME, dog (Beagle); settings: Dog liver microsomes, 1 μM total P450, 50 μM ZEN, NADPH-generating system, pH 7.4, 30 min; n = 4
Excerpt: as §1

[10] = In vitro metabolism of zearalenone, human male liver microsomal preparation; assay type: in vitro ADME; settings: Human Male liver microsomes, 1 μM total P450, 50 μM ZEN, NADPH-generating system, pH 7.4, 30 min; n = 4
Excerpt: as §1

[11] = In vitro metabolism of zearalenone, Cynomolgus monkey liver microsomal preparation; assay type: in vitro ADME, Macaca fascicularis; settings: Cynomolgus monkey liver microsomes, 1 μM total P450, 50 μM ZEN, NADPH-generating system, pH 7.4, 30 min; n = 4
Excerpt: as §1

Compound: β-zearalenol [β-ZOL]
- formation rate of ZEN metabolite [1]: 0.3 ± 0.1 nmoles/30 min/nmole P450
- metabolite found in post-mitochondrial incubation (fraction S9) [2]: in association with β-ZOL
- formation rate of ZEN metabolite [3]: 1.9 ± 0.4 nmoles/30 min/nmole P450
- formation rate of ZEN metabolite [4]: 10.0 ± 1.8 nmoles/30 min/nmole P450
- metabolite formed in cytosolic fraction [5]: formed
- formation rate of ZEN metabolite [6]: 3.3 ± 0.4 nmoles/30 min/nmole P450

Compound: C[C@H]1CCC[C@H](O)CCCCCc2cc(O)cc(O)c2C(=O)O1 [α–ZAL, α-zearalanol]
- EC50 (hER-α; read-out: EC50, half-maximal luciferase activity, transcriptional activation through ER α, HELN ER-α cells, 16 h at 37 °C, maximal activity with 10 nM E2): 0.00049 ± 0.0009 µM

Compound: C[C@H]1CCCC(=O)CCC/C=C/c2cc(O)cc(O)c2C(=O)O1 [ZEN, (3S,11E)-3,4,5,6,9,10-Hexahydro-14,16-dihydroxy-3-methyl-1H-2-benzoxacyclotetradecin-1,7(8H)-dione]
- agonist character for ERα (human ERα): full agonist
- agonist character for ERβ (human ERβ): partial agonist
- EC50 (hER-α): 0.0118 ± 0.0019 µM
- EC50 (hER-β): 0.0115 ± 0.0025 µM

Compound: CC(=O)N1CCN(c2ccc(OCC3COC(Cn4ccnc4)(c4ccc(Cl)cc4Cl)O3)cc2)CC1 (stereo not shown) [ketoconazole]
- effect on formation of OH-ZEN (cytochrome P450): inhibited

Compound: C[C@H]1CCC[C@H](O)CCC/C=C/c2cc(O)cc(O)c2C(=O)O1 [α-ZOL, α-zearalenol]
- formation rate of ZEN metabolite [1]: 3.3 ± 0.5 nmoles/30 min/nmole P450
- formation rate of ZEN metabolite [3]: 2.5 ± 0.4 nmoles/30 min/nmole P450
- formation rate of ZEN metabolite [7]: 41.3 ± 11.5 nmoles/30 min/nmole P450
- formation rate of ZEN metabolite [4]: 7.4 ± 0.6 nmoles/30 min/nmole P450
- formation rate of ZEN metabolite [8]: 14.7 ± 2.5 nmoles/30 min/nmole P450
- formation rate of ZEN metabolite [9]: 2.8 ± 0.3 nmoles/30 min/nmole P450
- metabolite formed in cytosolic fraction [5]: formed
- formation rate of ZEN metabolite [10]: 3.6 ± 0.3 nmoles/30 min/nmole P450
- formation rate of ZEN metabolite [11]: 4.0 ± 0.4 nmoles/30 min/nmole P450

Compound: [C-]#[O+] [carbon monoxide]
- effect on formation of OH-ZEN (cytochrome P450; carbon monoxide): inhibited
